{"source": "patent US20110014296A1", "about": "“Drug Delivery Nanodevice, its Preparation Method and Uses Thereof” (NATIONAL CHIAO TUNG UNIVERSITY, priority 2009, published 2011)", "system": "spontaneous SWDs of Long-Evans rats", "assay": "In vivo anti-epileptic therapy, spontaneous spike-wave discharges (SWDs)", "set-up": "species or system rat", "settings": "before and after application, ESM 28 mg/Kg i.p., ESM-SAIO and ESM-device 40 mg/Kg (FIG. 12)", "description": "Adult male Long-Evans and Wistar rats were used in this study. All rats were kept in a sound-attenuated room under a 12:12 hr light-dark cycle (07:00-19:00 lights on) with food and water provided ad libitum. The experimental procedures were reviewed and approved by the Institutional Animal Care and Use Committee. Briefly, the recording electrodes were implanted under pentobarbital anesthesia (60 mg/kg, i.p.). Subsequently, the rat was placed in a standard stereotaxic apparatus. In total, six stainless steel screws were driven bilaterally into the skull overlying the frontal (A +2.0, L 2.0 with reference to the bregma) and occipital (A −6.0, L 2.0) regions of the cortex to record cortical field potentials. A ground electrode was implanted 2 mm caudal to lambda. Dental cement was applied to fasten the connection socket to the surface of the skull. Following suturing to complete the surgery, animals were given an antibiotic (chlortetracycline) and housed individually in cages for recovery. […] To confirm the cortical focus theory of SWDs, a pharmacological epileptic rat model, low-dose pentylenetetrazol (PTZ) (20 mg/kg, i.p.) in Wistar rats, was also used. […] In this experiment, 1-hour spontaneous brain activity before the treatment (baseline) and another 1-hour spontaneous brain activity 30 minutes after the treatment were recorded, respectively. […]", "data": [{"smiles": "CCC1(C)CC(=O)NC1=O", "note": "(centres unmarked) [ESM, ethosuximide]", "values": [{"measurement": "SWD number", "result": "significantly reduced"}, {"measurement": "total SWD duration", "result": "significantly reduced"}]}]}
